Target: T1, ABL1 T315I (Homo sapiens, UniProt P00519, T315I)
T1 construct: purchased Thermo Fisher Scientific (Life Technologies) SelectScreen
Experiment: SelectScreen Z'LYTE
Type: biochemical
In short: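 Percent values come from Thermo SelectScreen profiling of NU5455, combining activity and binding assays. CSF1R was run in Z'LYTE format at Km app ATP, and CAMK1 in Adapta format with ATP listed at 10.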

## CN(C(=O)CN1CCOCC1)c1ccc2sc3c(-c4cccc5c(=O)cc(N6CC7CCC(C6)O7)oc45)cccc3c2c1 [NU5455]
  inhibition at 1 µM: -3%
